Experiments:
[1] = Particle size of the raw material by Malvern laser particle size analyzer (Mastersizer 2000); assay type: physicochemical; details: for Particle size d (0.5) of the raw material / Particle size d (0.9) of the raw material: in µm (unit assumed)
Experimental: 2-((2-Fluoro-4-iodophenyl)amino)-1-methyl-4-((6-methylpyridin-3-yl)oxy)-6-oxo-1,6-dihydropyridine-3-carboxamide p-toluenesulfonate (hereinafter referred to as compound A) was screened by an 80 mesh sieve, and micronized by a Mcone jet mill (micronizing pressure: 4 bar, sample introduction pressure: 6 bar), respectively. The particle size was measured directly with a Malvern laser particle size analyzer (Mastersizer 2000).

[2] = Solubility; assay type: physicochemical; details: compound A and its salts
[3] = raw material micronized by a jet mill (4 bar)
[4] = raw material screened by an 80 mesh sieve

Cc1ccc(Oc2cc(=O)n(C)c(Nc3ccc(I)cc3F)c2C(N)=O)cn1.Cc1ccc(S(=O)(=O)O)cc1 [compound A, 2-((2-fluoro-4-iodophenyl)amino)-1-methyl-4-((6-methylpyridin-3-yl)oxy)-6-oxo-1,6-di hydropyridine-3-carboxamide p-toluenesulfonate]
particle size of the raw material ([1]; raw material micronized by a jet mill): less than 10 μm | Particle size d (0.5) of the raw material [1, 3]: 2.587 | Particle size d (0.9) of the raw material [1, 3]: 5.494 | Particle size d (0.5) of the raw material [1, 4]: 4.940 | Particle size d (0.9) of the raw material [1, 4]: 14.148 | solubility [2]: low
